Assay results taken from PubChem BioAssay AID328 (DTP/NCI, 2004).
“And” between values parts separate entries of the source, which are not always exact repeats. Equal values may be shown once. Inconclusive results and toxic doses are left out.

Test system: BDF1 mice, P388 leukemia ip, median survival T/C
Assay: NCI In Vivo Anticancer Drug Screen. Data for tumor model P388 Leukemia (intraperitoneal) in B6D2F1 (BDF1) mice
Details: endpoint: median survival time, higher = longer survival
Outline: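 Survival ratio, drug arm over vehicle arm, in mice with a transplanted tumour.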

[1] = dose: 100.0 mg/kg/injection, schedule: Q01DX009 (ip), vehicle: saline
[2] = dose: 200.0 mg/kg/injection, schedule: Q01DX009 (ip), vehicle: saline
[3] = dose: 400.0 mg/kg/injection, schedule: Q01DX009 (ip), vehicle: saline
[4] = dose: 100.0 mg/kg/injection, schedule: Q01DX001 (ip), vehicle: saline with Tween-80
[5] = dose: 200.0 mg/kg/injection, schedule: Q01DX001 (ip), vehicle: saline with Tween-80

**Q.** For `CC(=O)OC1(C)CC(C)C(=O)C(C(O)CC2CC(=O)NC(=O)C2)C1` (stereo unspecified), which T/C (dose: 0.25 mg/kg/injection, schedule: Q01DX010 (ip), vehicle: water) is on record?
**A.** 90 % of control

**Q.** What about the T/C (dose: 2.16 mg/kg/injection, schedule: Q01DX001 (sc), vehicle: saline) of the same compound?
**A.** 100 % of control

**Q.** And the T/C (dose: 3.24 mg/kg/injection, schedule: Q01DX001 (ip), vehicle: saline)?
**A.** 110 % of control

**Q.** And the T/C (dose: 3.6 mg/kg/injection, schedule: Q01DX001 (sc), vehicle: saline)?
**A.** 123 % of control

**Q.** And the T/C (dose: 5.4 mg/kg/injection, schedule: Q01DX001 (ip), vehicle: saline)?
**A.** 116 % of control

**Q.** What about the T/C (dose: 5.4 mg/kg/injection, schedule: Q04DX003 (ip), vehicle: saline) of the same compound?
**A.** 107 % of control

**Q.** And the T/C (dose: 6.0 mg/kg/injection, schedule: Q01DX001 (sc), vehicle: saline)?
**A.** 118 % of control

**Q.** And the T/C (dose: 9.0 mg/kg/injection, schedule: Q01DX001 (ip), vehicle: saline)?
**A.** 117 % of control

**Q.** What about the T/C (dose: 15.0 mg/kg/injection, schedule: Q01DX001 (ip), vehicle: saline) of the same compound?
**A.** 123 % of control

**Q.** And the T/C (dose: 778.0 micrograms/kg/injection, schedule: Q04DX003 (sc), vehicle: saline)?
**A.** 109 % of control

**Q.** And the T/C (dose: 1300.0 micrograms/kg/injection, schedule: Q04DX003 (sc), vehicle: saline)?
**A.** 116 % of control

**Q.** What about the T/C (dose: 2160.0 micrograms/kg/injection, schedule: Q04DX003 (sc), vehicle: saline) of the same compound?
**A.** 107 % of control

**Q.** And the T/C (dose: 3600.0 micrograms/kg/injection, schedule: Q04DX003 (sc), vehicle: saline)?
**A.** 98 % of control

**Q.** What does the source list for `CN[C@H]1CCc2cc(OC)c(OC)c(OC)c2-c2ccc(OC)c(=O)cc21`?
**A.** T/C (dose: 0.63 mg/kg/injection, schedule: Q01DX010 (ip), vehicle: saline): 104 % of control; T/C (dose: 1.25 mg/kg/injection, schedule: Q01DX009 (ip), vehicle: saline): 117 % of control; T/C (dose: 1.25 mg/kg/injection, schedule: Q01DX010 (ip), vehicle: saline): 122 % of control; T/C (dose: 2.5 mg/kg/injection, schedule: Q01DX010 (ip), vehicle: saline): 122 % of control; T/C (dose: 5.0 mg/kg/injection, schedule: Q01DX010 (ip), vehicle: saline): 150 % of control; T/C (dose: 10.0 mg/kg/injection, schedule: Q01DX009 (ip), vehicle: saline): 93 % of control

**Q.** How did the T/C (dose: 12.5 mg/kg/injection, schedule: Q01DX009 (ip), vehicle: saline) turn out when `Nc1ccc(C(=O)Nc2ccc(Nc3ccncc3)cc2)c([N+](=O)[O-])c1` was run?
**A.** 97 % of control

**Q.** And the T/C (dose: 25.0 mg/kg/injection, schedule: Q01DX009 (ip), vehicle: saline)?
**A.** 97 % of control

**Q.** What about the T/C (dose: 50.0 mg/kg/injection, schedule: Q01DX009 (ip), vehicle: saline) of the same compound?
**A.** 119 % of control

**Q.** And the T/C (dose: 50.0 mg/kg/injection, schedule: Q04DX003 (ip), vehicle: saline)?
**A.** 94 % of control

**Q.** What about the T/C (dose: 75.0 mg/kg/injection, schedule: Q01DX009 (ip), vehicle: saline) of the same compound?
**A.** 90 % of control

**Q.** What about the T/C [1] of the same compound?
**A.** 108 % of control

**Q.** And the T/C (dose: 100.0 mg/kg/injection, schedule: Q04DX003 (ip), vehicle: saline)?
**A.** 100 % of control

**Q.** And the T/C [2]?
**A.** 111 % of control

**Q.** And the T/C (dose: 200.0 mg/kg/injection, schedule: Q04DX003 (ip), vehicle: saline)?
**A.** 92 % of control

**Q.** And the T/C [3]?
**A.** 111 % of control

**Q.** What about the T/C (dose: 400.0 mg/kg/injection, schedule: Q04DX003 (ip), vehicle: saline) of the same compound?
**A.** 92 % of control

**Q.** What does the source list for `CCOC(=O)/C=C/C(C(=O)OCC)C(=O)OCC`?
**A.** T/C (dose: 75.0 mg/kg/injection, schedule: Q04DX003 (ip), vehicle: saline with Tween-80): 95 % of control; T/C (dose: 150.0 mg/kg/injection, schedule: Q04DX003 (ip), vehicle: saline with Tween-80): 120 % of control

**Q.** With `O=C1C=CC(=Nc2ccc3c(c2)C(Br)c2ccccc2-3)O1` (stereo unspecified) as the compound, how does the T/C (dose: 2.25 mg/kg/injection, schedule: Q01DX009 (ip), vehicle: saline) read?
**A.** 100 % of control

**Q.** And the T/C (dose: 4.5 mg/kg/injection, schedule: Q01DX009 (ip), vehicle: saline)?
**A.** 100 % of control

**Q.** And the T/C (dose: 9.0 mg/kg/injection, schedule: Q01DX009 (ip), vehicle: saline)?
**A.** 100 % of control

**Q.** And the T/C (dose: 13.0 mg/kg/injection, schedule: Q01DX009 (ip), vehicle: saline)?
**A.** 105 % of control

**Q.** And the T/C (dose: 20.0 mg/kg/injection, schedule: Q01DX009 (ip), vehicle: saline)?
**A.** 100 % of control

**Q.** What about the T/C (dose: 30.0 mg/kg/injection, schedule: Q01DX009 (ip), vehicle: saline) of the same compound?
**A.** 120 % of control

**Q.** And the T/C (dose: 95.0 mg/kg/injection, schedule: Q04DX003 (ip), vehicle: saline)?
**A.** 109 % of control

**Q.** And the T/C (dose: 145.0 mg/kg/injection, schedule: Q04DX003 (ip), vehicle: saline)?
**A.** 118 % of control

**Q.** What does the source list for `O=C(c1ccccc1Cl)n1c(Cl)c(/C=N\Nc2cccc([N+](=O)[O-])c2)c2ccccc21`?
**A.** T/C (dose: 100.0 mg/kg/injection, schedule: Q04DX002 (ip), vehicle: Klucel (hydroxypropylcellulose) (HPC)): 90 % of control; T/C (dose: 200.0 mg/kg/injection, schedule: Q04DX002 (ip), vehicle: Klucel (hydroxypropylcellulose) (HPC)): 89 % of control; T/C (dose: 400.0 mg/kg/injection, schedule: Q04DX002 (ip), vehicle: Klucel (hydroxypropylcellulose) (HPC)): 90 % of control

**Q.** Which results are given for `COC(=O)[C@@]12OC[C@]34[C@H]([C@@H](O)[C@@H]1O)[C@@]1(C)CC(=O)C(O)=C(C)[C@@H]1C[C@H]3OC(=O)[C@H](OC(=O)c1ccccc1)[C@@H]24`?
**A.** T/C (dose: 31.0 micrograms/kg/injection, schedule: Q01DX009 (ip), vehicle: saline + alcohol): 86 % of control and 90 % of control and 100 % of control; T/C (dose: 61.0 micrograms/kg/injection, schedule: Q01DX009 (ip), vehicle: saline + alcohol): 100 % of control; T/C (dose: 62.0 micrograms/kg/injection, schedule: Q01DX009 (ip), vehicle: saline + alcohol): 113 % of control; T/C (dose: 125.0 micrograms/kg/injection, schedule: Q01DX009 (ip), vehicle: saline + alcohol): 95 % of control and 109 % of control; T/C (dose: 250.0 micrograms/kg/injection, schedule: Q01DX009 (ip), vehicle: saline + alcohol): 100 % of control and 109 % of control; T/C (dose: 500.0 micrograms/kg/injection, schedule: Q01DX009 (ip), vehicle: saline + alcohol): 100 % of control and 113 % of control; T/C (dose: 1000.0 micrograms/kg/injection, schedule: Q01DX009 (ip), vehicle: saline + alcohol): 100 % of control and 118 % of control; T/C (dose: 4000.0 micrograms/kg/injection, schedule: Q01DX009 (ip), vehicle: saline + alcohol): 109 % of control

**Q.** `NC(=O)c1ncccc1C(=O)O` was tested. Which T/C [4] did it give?
**A.** 103 % of control

**Q.** What about the T/C [5] of the same compound?
**A.** 100 % of control

**Q.** And the T/C (dose: 400.0 mg/kg/injection, schedule: Q01DX001 (ip), vehicle: saline with Tween-80)?
**A.** 96 % of control

**Q.** With `Cc1nc2n[nH]c(N)c2nc1C` as the compound, how does the T/C [1] read?
**A.** 100 % of control

**Q.** What about the T/C [2] of the same compound?
**A.** 100 % of control

**Q.** And the T/C [3]?
**A.** 91 % of control

**Q.** For `NC(=O)c1cc(=S)[nH]c2nc(Cl)nc(N)c12`, which T/C (dose: 100.0 mg/kg/injection, schedule: Q04DX002 (ip), vehicle: saline with Tween-80) is on record?
**A.** 120 % of control

**Q.** With `CC(=O)CC(=O)Nc1ccc(Cl)cc1Cl` as the compound, how does the T/C (dose: 100.0 mg/kg/injection, schedule: Q01DX009 (ip), vehicle: Klucel (hydroxypropylcellulose) (HPC)) read?
**A.** 96 % of control

**Q.** And the T/C (dose: 100.0 mg/kg/injection, schedule: Q04DX003 (ip), vehicle: Klucel (hydroxypropylcellulose) (HPC))?
**A.** 87 % of control

**Q.** What about the T/C (dose: 200.0 mg/kg/injection, schedule: Q01DX009 (ip), vehicle: Klucel (hydroxypropylcellulose) (HPC)) of the same compound?
**A.** 104 % of control

**Q.** And the T/C (dose: 200.0 mg/kg/injection, schedule: Q04DX003 (ip), vehicle: Klucel (hydroxypropylcellulose) (HPC))?
**A.** 87 % of control

**Q.** And the T/C (dose: 400.0 mg/kg/injection, schedule: Q01DX009 (ip), vehicle: Klucel (hydroxypropylcellulose) (HPC))?
**A.** 88 % of control

**Q.** What about the T/C (dose: 400.0 mg/kg/injection, schedule: Q04DX003 (ip), vehicle: Klucel (hydroxypropylcellulose) (HPC)) of the same compound?
**A.** 95 % of control

**Q.** What does the source list for `C#CC(C)OCC(C)OC` (stereo unspecified)?
**A.** T/C (dose: 12.5 mg/kg/injection, schedule: Q04DX003 (ip), vehicle: saline with Tween-80): 118 % of control; T/C (dose: 50.0 mg/kg/injection, schedule: Q04DX003 (ip), vehicle: saline with Tween-80): 118 % of control

**Q.** What does the source list for `CC(=O)Oc1ccc2c(c1)CCC1C2CCC2(C)C1CCC21CO1` (stereo unspecified)?
**A.** T/C (dose: 50.0 mg/kg/injection, schedule: Q01DX009 (ip), vehicle: saline with Tween-80): 90 % of control; T/C (dose: 100.0 mg/kg/injection, schedule: Q01DX009 (ip), vehicle: saline with Tween-80): 97 % of control; T/C (dose: 200.0 mg/kg/injection, schedule: Q01DX009 (ip), vehicle: saline with Tween-80): 98 % of control

**Q.** With `Cc1ccc(N2CCN(C3=CCC(C(C)C)CC3)CC2)cc1Cl` (stereo unspecified) as the compound, how does the T/C [4] read?
**A.** 105 % of control

**Q.** And the T/C [5]?
**A.** 105 % of control
